# Patent publication US5300491A, “Treatment of protozoal infection” (priority 1992, dated 1994)
# Like-named read-outs stand apart in the source and are kept apart here. Bridge positions count the residues as written; N and C are the ends. Square brackets hold non-standard residues; d marks the D form. Peptide text beside a SMILES is read from it. * marks the point of attachment. Ileψ(thiazoline)Cys = CC[C@H](C)[C@H](N)C1=N[C@H](C(=O)*)CS1; dOrn = NCCC[C@@H](N)C(=O)O
# Test system: Entamoeba histolytica
# Assay type: cell-based
# Source text: E. histolytica isolates representing three distinct zymodemes (I, II or XIV) were derived from a range of geographical locations. The patients from whom the isolates were obtained were either pathogenic (i.e. presented dysentery), or non-pathogenic (i.e., presented a non-dysenteric stage of infection characterized by passing of cysts or trophozoites). The following table identifies the E. histolytica isolates in accordance with the above criteria:
# Each isolate was a xenic culture, i.e., it contained, in addition to the E. histolytica amoeba, the normally occurring patient faecal microflora. The cultures were maintained according to the method of Robinson, Trans. Roy. Soc. Trop. Med. Hyg. 62, 285-94, (1968). Bacitracin (70 I.U./mg) and its zinc salt (65 I.U./mg) were obtained from Apothekernes Laboratorium A.S (Oslo, Norway). Following microtitre-assay standardization and pilot testing of the drugs (results not presented), the following assay procedure was established. Bacitracin was screened over the range of 20.0-0.625 mg/ml by doubling dilution. 30 mg/ml bacitracin was also examined. […] The remaining wells were run as controls. An initial stock solution of 75 mg/ml bacitracin was prepared in starch-free Robinson medium (SFRM) . Subsequent to loading the first set of wells, the stock was diluted with SFRM to 50 mg/ml, which was used to prepare the remaining concentrations. […] 100 μl volumes of both drugs were then double-diluted in SFRM to provide 2.5X concentrates of the required final concentrations in the microtitre plates. 50 μl of a 25 mg% starch (BDH) solution (in SFRM) was then added to each well. 16-18 hours before the end of the required 48-hour culture period, the amoeba isolates were passaged to fresh tubes containing starch-free Robinson medium. At the end of the culture period, the amoebae were harvested in a small volume of medium and resuspended in at least 20 volumes SFRM. The suspensions were centrifuged at 1000 rpm for 5 minutes prior to re-suspension in fresh medium and counted in a modified Neubauer chamber. Amoebae were centrifuged as before and the pellet resuspended to a concentration of 2.5×10^4 /ml SFRM. 100 μl aliquots were then pipetted into respective wells to provide duplicate cultures of each isolate for each concentration assayed. The plates were then placed in an anaerobic chamber (HP11, Oxoid) at 37° C. for 24 hours. While this procedure provided sufficient starch for the amoebae, the concentration was such that at 24 hours the plates were easily read and quantitified by direct observation using an inverted microscope. Viability was assessed by the addition of Trypan blue to a final concentration of 0.1%.
# Readings from each of the studies were collected and stored until all three experiments were completed in order to reduce any bias in subsequent readings. Minimun inhibitory and minimum lethal concentrations were given in mg/ml. […]
# [1] = xenic isolate 70k, Experiment 1
# [2] = xenic isolate 70k, Experiment 2
# [3] = xenic isolate 70k, Experiment 3
# [4] = xenic isolate 116k, Experiment 1
# [5] = xenic isolate 116k, Experiment 2
# [6] = xenic isolate 116k, Experiment 3
# [7] = xenic isolate 418, Experiment 1
# [8] = xenic isolate 418, Experiment 2
# [9] = xenic isolate 418, Experiment 3
# [10] = xenic isolate 1246, Experiment 1
# [11] = xenic isolate 1246, Experiment 2
# [12] = xenic isolate 1246, Experiment 3
# [13] = xenic isolate AiDO, Experiment 1
# [14] = xenic isolate AiDO, Experiment 2
# [15] = xenic isolate AiDO, Experiment 3
# [16] = xenic isolate BiLO, Experiment 1
# [17] = xenic isolate BiLO, Experiment 3
# [18] = xenic isolate DOGO, Experiment 1
# [19] = xenic isolate DOGO, Experiment 2
# [20] = xenic isolate DOGO, Experiment 3
# [21] = xenic isolate OMAk, Experiment 1
# [22] = xenic isolate OMAk, Experiment 3
# [23] = xenic isolate Sh2, Experiment 2
# [24] = xenic isolate Sh2, Experiment 3
# [25] = xenic isolate T2k, Experiment 1
# [26] = xenic isolate T2k, Experiment 2
# [27] = xenic isolate T2k, Experiment 3
# [28] = xenic isolate URU1, Experiment 1
# [29] = xenic isolate URU1, Experiment 2
# [30] = xenic isolate URU1, Experiment 3
# [31] = xenic isolate URU19, Experiment 1
structure (smiles),measurement,setting,value
"CC[C@H](C)[C@H](N)C1=N[C@H](C(=O)N[C@@H](CC(C)C)C(=O)N[C@H](CCC(=O)O)C(=O)N[C@H](C(=O)N[C@H]2CCCCNC(=O)[C@H](CC(N)=O)NC(=O)[C@@H](CC(=O)O)NC(=O)[C@H](Cc3cnc[nH]3)NC(=O)[C@@H](Cc3ccccc3)NC(=O)[C@H]([C@@H](C)CC)NC(=O)[C@@H](CCCN)NC2=O)[C@@H](C)CC)CS1 [Bacitracin, reference compound] ({Ileψ(thiazoline)Cys}-L[dE]IK[dOrn]I[dF]H[dD]N; lactam 4-C)",MICs,span over all xenic isolates and studies,0.63 to 10.0 mg/mL
same,Minimum Lethal Concentration (MLC),"xenic Isolate 1, single study over a narrower range of drug concentration (Table 4)",21 mg/mL
same,Minimum Lethal Concentration (MLC),"xenic Isolate C1, single study over a narrower range of drug concentration (Table 4)",24 mg/mL
same,Minimum Inhibitory Concentration (MIC),"xenic isolate 1, Experiment 1",5.0 mg/mL
same,Minimum Lethal Concentration (MLC),"xenic isolate 1, Experiment 1",30.0 mg/mL
same,Minimum Inhibitory Concentration (MIC),"xenic isolate 1, Experiment 2",10.0 mg/mL
same,Minimum Lethal Concentration (MLC),"xenic isolate 1, Experiment 2",30.0 mg/mL
same,Minimum Inhibitory Concentration (MIC),"xenic isolate 1, Experiment 3",5.0 mg/mL
same,Minimum Lethal Concentration (MLC),"xenic isolate 1, Experiment 3",30.0 mg/mL
same,Minimum Inhibitory Concentration (MIC),[1],5.0 mg/mL
same,Minimum Lethal Concentration (MLC),[1],30.0 mg/mL
same,Minimum Inhibitory Concentration (MIC),[2],5.0 mg/mL
same,Minimum Lethal Concentration (MLC),[2],20.0 mg/mL
same,Minimum Inhibitory Concentration (MIC),[3],10.0 mg/mL
same,Minimum Lethal Concentration (MLC),[3],30.0 mg/mL
same,Minimum Inhibitory Concentration (MIC),[4],10.0 mg/mL
same,Minimum Lethal Concentration (MLC),[4],30.0 mg/mL
same,Minimum Inhibitory Concentration (MIC),[5],1.25 mg/mL
same,Minimum Lethal Concentration (MLC),[5],30.0 mg/mL
same,Minimum Inhibitory Concentration (MIC),[6],1.25 mg/mL
same,Minimum Lethal Concentration (MLC),[6],30.0 mg/mL
same,Minimum Inhibitory Concentration (MIC),[7],5.0 mg/mL
same,Minimum Lethal Concentration (MLC),[7],30.0 mg/mL
same,Minimum Inhibitory Concentration (MIC),[8],0.63 mg/mL
same,Minimum Lethal Concentration (MLC),[8],20.0 mg/mL
same,Minimum Inhibitory Concentration (MIC),[9],0.63 mg/mL
same,Minimum Lethal Concentration (MLC),[9],20.0 mg/mL
same,Minimum Inhibitory Concentration (MIC),[10],2.5 mg/mL
same,Minimum Lethal Concentration (MLC),[10],30.0 mg/mL
same,Minimum Inhibitory Concentration (MIC),[11],10.0 mg/mL
same,Minimum Lethal Concentration (MLC),[11],20.0 mg/mL
same,Minimum Inhibitory Concentration (MIC),[12],0.63 mg/mL
same,Minimum Lethal Concentration (MLC),[12],20.0 mg/mL
same,Minimum Inhibitory Concentration (MIC),[13],10.0 mg/mL
same,Minimum Lethal Concentration (MLC),[13],30.0 mg/mL
same,Minimum Inhibitory Concentration (MIC),[14],2.5 mg/mL
same,Minimum Lethal Concentration (MLC),[14],30.0 mg/mL
same,Minimum Inhibitory Concentration (MIC),[15],2.5 mg/mL
same,Minimum Lethal Concentration (MLC),[15],30.0 mg/mL
same,Minimum Inhibitory Concentration (MIC),[16],5.0 mg/mL
same,Minimum Lethal Concentration (MLC),[16],30.0 mg/mL
same,Minimum Inhibitory Concentration (MIC),[17],1.25 mg/mL
same,Minimum Lethal Concentration (MLC),[17],20.0 mg/mL
same,Minimum Inhibitory Concentration (MIC),"xenic isolate C1, Experiment 1",10.0 mg/mL
same,Minimum Lethal Concentration (MLC),"xenic isolate C1, Experiment 1",30.0 mg/mL
same,Minimum Inhibitory Concentration (MIC),"xenic isolate C1, Experiment 2",5.0 mg/mL
same,Minimum Lethal Concentration (MLC),"xenic isolate C1, Experiment 2",20.0 mg/mL
same,Minimum Inhibitory Concentration (MIC),"xenic isolate C1, Experiment 3",1.25 mg/mL
same,Minimum Lethal Concentration (MLC),"xenic isolate C1, Experiment 3",20.0 mg/mL
same,Minimum Inhibitory Concentration (MIC),"xenic isolate C2, Experiment 1",2.5 mg/mL
same,Minimum Lethal Concentration (MLC),"xenic isolate C2, Experiment 1",30.0 mg/mL
same,Minimum Inhibitory Concentration (MIC),"xenic isolate C2, Experiment 2",5.0 mg/mL
same,Minimum Lethal Concentration (MLC),"xenic isolate C2, Experiment 2",20.0 mg/mL
same,Minimum Inhibitory Concentration (MIC),"xenic isolate C2, Experiment 3",2.5 mg/mL
same,Minimum Lethal Concentration (MLC),"xenic isolate C2, Experiment 3",30.0 mg/mL
same,Minimum Inhibitory Concentration (MIC),"xenic isolate DA, Experiment 1",2.5 mg/mL
same,Minimum Lethal Concentration (MLC),"xenic isolate DA, Experiment 1",30.0 mg/mL
same,Minimum Inhibitory Concentration (MIC),"xenic isolate DA, Experiment 2",5.0 mg/mL
same,Minimum Lethal Concentration (MLC),"xenic isolate DA, Experiment 2",30.0 mg/mL
same,Minimum Inhibitory Concentration (MIC),"xenic isolate DA, Experiment 3",0.63 mg/mL
same,Minimum Lethal Concentration (MLC),"xenic isolate DA, Experiment 3",20.0 mg/mL
same,Minimum Inhibitory Concentration (MIC),[18],2.5 mg/mL
same,Minimum Lethal Concentration (MLC),[18],30.0 mg/mL
same,Minimum Inhibitory Concentration (MIC),[19],2.5 mg/mL
same,Minimum Lethal Concentration (MLC),[19],20.0 mg/mL
same,Minimum Inhibitory Concentration (MIC),[20],0.63 mg/mL
same,Minimum Lethal Concentration (MLC),[20],10.0 mg/mL
same,Minimum Inhibitory Concentration (MIC),"xenic isolate GS, Experiment 1",2.5 mg/mL
same,Minimum Lethal Concentration (MLC),"xenic isolate GS, Experiment 1",30.0 mg/mL
same,Minimum Inhibitory Concentration (MIC),"xenic isolate GS, Experiment 2",1.25 mg/mL
same,Minimum Lethal Concentration (MLC),"xenic isolate GS, Experiment 2",20.0 mg/mL
same,Minimum Inhibitory Concentration (MIC),"xenic isolate GS, Experiment 3",0.63 mg/mL
same,Minimum Lethal Concentration (MLC),"xenic isolate GS, Experiment 3",30.0 mg/mL
same,Minimum Inhibitory Concentration (MIC),"xenic isolate MS, Experiment 1",5.0 mg/mL
same,Minimum Lethal Concentration (MLC),"xenic isolate MS, Experiment 1",30.0 mg/mL
same,Minimum Inhibitory Concentration (MIC),"xenic isolate MS, Experiment 2",2.5 mg/mL
same,Minimum Lethal Concentration (MLC),"xenic isolate MS, Experiment 2",20.0 mg/mL
same,Minimum Inhibitory Concentration (MIC),"xenic isolate MS, Experiment 3",1.25 mg/mL
same,Minimum Lethal Concentration (MLC),"xenic isolate MS, Experiment 3",20.0 mg/mL
same,Minimum Inhibitory Concentration (MIC),[21],2.5 mg/mL
same,Minimum Lethal Concentration (MLC),[21],30.0 mg/mL
same,Minimum Inhibitory Concentration (MIC),[22],1.25 mg/mL
same,Minimum Lethal Concentration (MLC),[22],30.0 mg/mL
same,Minimum Inhibitory Concentration (MIC),"xenic isolate SI, Experiment 1",2.5 mg/mL
same,Minimum Lethal Concentration (MLC),"xenic isolate SI, Experiment 1",30.0 mg/mL
same,Minimum Inhibitory Concentration (MIC),"xenic isolate SI, Experiment 3",2.5 mg/mL
same,Minimum Lethal Concentration (MLC),"xenic isolate SI, Experiment 3",20.0 mg/mL
same,Minimum Inhibitory Concentration (MIC),[23],5.0 mg/mL
same,Minimum Lethal Concentration (MLC),[23],20.0 mg/mL
same,Minimum Inhibitory Concentration (MIC),[24],2.5 mg/mL
same,Minimum Lethal Concentration (MLC),[24],30.0 mg/mL
same,Minimum Inhibitory Concentration (MIC),[25],2.5 mg/mL
same,Minimum Lethal Concentration (MLC),[25],30.0 mg/mL
same,Minimum Inhibitory Concentration (MIC),[26],2.5 mg/mL
same,Minimum Lethal Concentration (MLC),[26],30.0 mg/mL
same,Minimum Inhibitory Concentration (MIC),[27],0.63 mg/mL
same,Minimum Lethal Concentration (MLC),[27],30.0 mg/mL
same,Minimum Inhibitory Concentration (MIC),"xenic isolate T4, Experiment 1",5.0 mg/mL
same,Minimum Lethal Concentration (MLC),"xenic isolate T4, Experiment 1",30.0 mg/mL
same,Minimum Inhibitory Concentration (MIC),"xenic isolate T4, Experiment 2",2.5 mg/mL
same,Minimum Lethal Concentration (MLC),"xenic isolate T4, Experiment 2",30.0 mg/mL
same,Minimum Inhibitory Concentration (MIC),"xenic isolate T4, Experiment 3",0.63 mg/mL
same,Minimum Lethal Concentration (MLC),"xenic isolate T4, Experiment 3",30.0 mg/mL
same,Minimum Inhibitory Concentration (MIC),"xenic isolate T6, Experiment 1",2.5 mg/mL
same,Minimum Lethal Concentration (MLC),"xenic isolate T6, Experiment 1",30.0 mg/mL
same,Minimum Inhibitory Concentration (MIC),"xenic isolate T6, Experiment 2",2.5 mg/mL
same,Minimum Lethal Concentration (MLC),"xenic isolate T6, Experiment 2",20.0 mg/mL
same,Minimum Inhibitory Concentration (MIC),"xenic isolate T6, Experiment 3",2.5 mg/mL
same,Minimum Lethal Concentration (MLC),"xenic isolate T6, Experiment 3",20.0 mg/mL
same,Minimum Inhibitory Concentration (MIC),[28],2.5 mg/mL
same,Minimum Lethal Concentration (MLC),[28],30.0 mg/mL
same,Minimum Inhibitory Concentration (MIC),[29],2.5 mg/mL
same,Minimum Lethal Concentration (MLC),[29],20.0 mg/mL
same,Minimum Inhibitory Concentration (MIC),[30],1.25 mg/mL
same,Minimum Lethal Concentration (MLC),[30],30.0 mg/mL
same,Minimum Inhibitory Concentration (MIC),[31],2.5 mg/mL
same,Minimum Lethal Concentration (MLC),[31],30.0 mg/mL
